Data on 1 molecule can be found in patent US10065951B2, “Small molecule transcription modulators of bromodomains” (Icahn School of Medicine at Mount Sinai, priority 2014, dated 2018).

Assay [1] concerns rat primary oligodendrocyte progenitors. Description: Oligodendrocyte progenitor differentiation (immunocytochemistry NG2/O4/MBP, qRT-PCR MOG). It counts as cell-based. To be noted: 10 nM. The procedure:
Early and differentiating progenitors were identified by positive immunoreactivity for the marker NG2 (dark) or O4 (light), respectively. FIG. 6B illustrates the number of NG2+, O4+ and NG2+/O4+ cells quantified in three independent experiments and the total number of oligodendrocyte lineage cells (mean±SD). FIG. 6C illustrates the results of rat primary cells cultured in medium containing 4c (10 nM) for 4 days and then labeled with O4 (light) and with the differentiation marker MBP (dark). FIG. 6D is a bar graph showing the number of MBP+ cells quantified in three independent experiments (mean±SD). FIG. 6E illustrates the qRT-PCR of the transcript levels of the late differentiation marker MOG in treated cells.
Cortex from rat p1 pups were dissected in L-15 medium and collected in NM10 medium (DMEM+10% FBS+2 mM glutamine+1 mM sodium pyruvate+100 U/ml penicillin+100 μg/ml streptomycin). The dissociated cells were plated into 75 cm^2 flasks (1.5 brain per flask) and cultured at 37° C. supplied with 5% CO2 for 7 days with the changing of fresh NM10 medium every other day. At day 8 the flasks were shaken for 16-18 h at 200 rpm and 37° C. and the medium containing the ‘shaken-off’ cells were collected. Oligodendrocyte progenitors (OPCs) were then isolated from the cell suspension by immunoselection using A2B5 antibodies followed by incubation with anti-immunoglobulin magnetic microbeads (50 nm in size and biodegradable) and separation using a high-gradient magnetic field generated by the permanent magnet in the MACS Separator unit (Miltenyi Biotec). The purified OPCs were plated in NM10 medium onto Lab Tek®II 8-well chamber slides (Nalge Nunc Inc.) at a density of 2×10^4 per well for immunocytochemistry, or poly-D-lysine-coated 6-well plates at a density of 2×10^5 per well for RNA isolation. After incubated for 8-16 hr, the medium was changed to ODM (DMEM, 2 mM L-glutamine, 1 mM sodium pyruvate, 10 ng/ml biotin, 100 μg/ml apotransferrin, 100 μM putrescine, 20 nM progesterone, 30 nM sodium selenite, 5 μg/ml insulin, 100 U/ml penicillin, 100 μg/ml streptomycin) supplemented with bFGF (20 ng/ml) and platelet derived growth factor (PDGF; 10 ng/ml), and cultured for additional one day as previously described (He, Y. et al., Neuron 55, 217-30 (2007)). Oligodendrocyte differentiation was induced by culturing the cells in the same medium devoid of mitogens (ODM) with or without compounds at indicated concentrations. […]
Images were captured at 20× objective using LSM 710 Meta confocal laser scanning microscope (Carl Zeiss MicroImaging, Inc.). For the quantification of the cells at different stages, three fields of each well and three wells of each condition were analyzed. […]
(In qPCR the cycle at which signal appears reflects the starting amount.)

The test system of the next assay is MOG-induced EAE. In words: MOG-induced EAE in mice, treatment from day 4 after immunization. It counts as in vivo, mouse. The protocol: FIG. 12A illustrates a score graph of clinical severity of EAE in mice injected with MOG as described herein. Each group was composed of 6-9 mice. Below the score, the graphs show the levels of myelin transcripts detected at the times denoted by asterisks in the score graph. 12B provides transcript levels detected in the spinal cord of mice harvested at the same time points as the asterisks in 12A.
An in vivo mouse model study was conducted to determine how treatment with 4c would modulate oligodendrocyte progenitor differentiation and impact repair after demyelination. In a first series of experiments, a model of immune-mediated demyelination was used. EAE was induced by subcutaneous injection of 300 μg of MOG35-55 peptide thoroughly emulsified in complete Freund's adjuvant containing heat-inactivated Mycobacterium tuberculosis in the mouse flank on day 0 and 7. Pertussis toxin (500 ng) was intraperitoneally injected on day 0 and 2. After immunization mice were observed and weighed daily and scored for severity of symptoms as follows: 0, no detectable symptoms; 1, loss of tail tone; 2, hindlimb weakness or abnormal gait; 3, complete paralysis of the hindlimbs; 4, complete hindlimb and forelimb paralysis; 5, death. A minimum of 6-9 animals received daily intraperitoneal injections of 4c, starting from day 4 after immunization with the MOG peptide (FIG. 12A) and weight and clinical score were recorded daily. Disease onset was similar in mice treated with 4c compared to DMSO-injected controls.

[2] abbreviates: 0.24 μg/kg (10 nM), daily intraperitoneal from day 4.
The mark [3] stands for this setting: 2.4 μg/kg (100 nM), daily intraperitoneal from day 4.

On to `CC(=O)NCCCCn1c2c(c3ccccc31)C(=O)NCC2` [4c, 2,3,4,5-tetrahydro-5-(4′-acetamidobutyl)-1H-pyrido-[4,3-b]indol-1-one], for which the “percentage of MBP+ cells” value in assay [1] (4-day treatment) is “increased percentage of MBP+ cells”. For the same molecule, in assay [1] (4-day treatment, qRT-PCR), the “transcript levels of late-differentiation marker MOG” value is recorded as “increased transcript levels”. In addition, in assay [1] (two-day treatment), the “NG2+ progenitors” value is recorded as “concomitant decrease of NG2+ progenitors” and the “percentage of O4+ cells” value is “increased percentage of O4+ cells”. Also, in the assay with MOG-induced EAE (setting [2]), the Average score amounted to 2.25, the Maximum score is given as 2.5, the “Number of animals with clinical signs” value was 4 out of 7 and the “Number of mice with score <0.5” value was 1/4. Further, the “recovery period compared to vehicle controls” value with MOG-induced EAE (2.4 μg/Kg) is on record as “dramatically accelerated”. The “myelin gene transcripts in spinal cord during recovery” value in the assay on MOG-induced EAE (2.4 μg/Kg, similar levels of cytokines) is “significant increase of myelin gene transcripts”. In the assay on MOG-induced EAE (setting [3]), the Average score is 2.25, the “Number of animals with clinical signs” value is reported as 5 out of 7 and the “Number of mice with score <0.5” value is given as 4/5. The “disease onset compared to DMSO-injected controls” value in the assay with MOG-induced EAE (daily intraperitoneal from day 4) is reported as “similar”. Also, the “disease severity at day 18” value in the assay with MOG-induced EAE (day 18, vs vehicle-injected controls) is on record as “less severe disease”.
